PMC6325638 (Clinics in liver disease, 2017)
Where two headings read alike, the source gives them in different places.

Legend:
zebrafish larvae [1] = test system: zebrafish larvae
zebrafish larvae [2] = details: in vivo
cultured rat hepatocytes = test: ROS induction and death in cultured hepatocytes; assay type: cell-based; details: 96-well plates, oxyethidium fluorescence
[3] = test system: 3D multicellular microphysiological systems (MPS) of the human liver; details: 3D multicellular microfluidic human liver model; cited from earlier work
[4] = 72 hpf zebrafish larvae, 0.66 μM
[5] = 72 hpf zebrafish larvae, 6.6 μM
[6] = 72 hpf zebrafish larvae, 200 μM
[7] = 72 hpf zebrafish larvae, 0.07 μM
[8] = 72 hpf zebrafish larvae, 0.2 μM

Structure (SMILES)	Live/dead (translucent = live, opaque = dead) (zebrafish larvae [1]; [4])	Live/dead (translucent = live, opaque = dead) (zebrafish larvae [1]; 72 hpf zebrafish larvae, 2 μM)	Live/dead (translucent = live, opaque = dead) (zebrafish larvae [1]; [5])	Live/dead (translucent = live, opaque = dead) (zebrafish larvae [1]; 72 hpf zebrafish larvae, 20 μM)	Live/dead (translucent = live, opaque = dead) (zebrafish larvae [1]; 72 hpf zebrafish larvae, 66 μM)	Live/dead (translucent = live, opaque = dead) (zebrafish larvae [1]; [6])	Live/dead (translucent = live, opaque = dead) (zebrafish larvae [1]; [7])	Visual toxicity (bent tail, distended peritoneum, edema, pericardial congestion) (zebrafish larvae [1]; [7])	Live/dead (translucent = live, opaque = dead) (zebrafish larvae [1]; [8])	Visual toxicity (bent tail, distended peritoneum, edema, pericardial congestion) (zebrafish larvae [1]; [8])	Visual toxicity (bent tail, distended peritoneum, edema, pericardial congestion) (zebrafish larvae [1]; [4])	Visual toxicity (bent tail, distended peritoneum, edema, pericardial congestion) (zebrafish larvae [1]; 72 hpf zebrafish larvae, 2 μM)	Visual toxicity (bent tail, distended peritoneum, edema, pericardial congestion) (zebrafish larvae [1]; [5])	Visual toxicity (bent tail, distended peritoneum, edema, pericardial congestion) (zebrafish larvae [1]; 72 hpf zebrafish larvae, 20 μM)	further results
CCCCc1oc2ccccc2c1C(=O)c1cc(I)c(OCCN(CC)CC)c(I)c1 [Amiodarone]	4/0	4/0	4/0	4/0	0/4	0/4									
N#CC(C#N)=NNc1cccc(Cl)c1 [CCCP, Carbonyl cyandide m-chorophenyl hydrazone]	4/0	4/0	4/0				4/0	2/4	4/0	4/4	3/4	3/4	2/4	0/1	
Cn1c(=O)c2c(ncn2C)n(C)c1=O [Caffeine]															Live/dead (translucent = live, opaque = dead) (zebrafish larvae [1]; 72 hpf zebrafish larvae, 3 μM): 4/0; Live/dead (translucent = live, opaque = dead) (zebrafish larvae [1]; 72 hpf zebrafish larvae, 10 μM): 4/0; Live/dead (translucent = live, opaque = dead) (zebrafish larvae [1]; 72 hpf zebrafish larvae, 30 μM): 4/0; Live/dead (translucent = live, opaque = dead) (zebrafish larvae [1]; 72 hpf zebrafish larvae, 100 μM): 4/0; Live/dead (translucent = live, opaque = dead) (zebrafish larvae [1]; 72 hpf zebrafish larvae, 300 μM): 4/0; Live/dead (translucent = live, opaque = dead) (zebrafish larvae [1]; 72 hpf zebrafish larvae, 1000 μM): 4/0
CC1=CC(=O)c2ccccc2C1=O [Menadione]	4/0	4/0	4/0	0/4	0/4	0/4									Generation of ROS in zebrafish (zebrafish larvae [2]): time-dependent and dose-dependent generation of ROS; ROS induction and death in cultured hepatocytes (cultured rat hepatocytes): ROS induction and death in cultured hepatocytes; Visual toxicity (bent tail, distended peritoneum, edema, pericardial congestion) (zebrafish larvae [1]; zebrafish, in vivo, 0.66 μM): 0/4; Visual toxicity (bent tail, distended peritoneum, edema, pericardial congestion) (zebrafish larvae [1]; zebrafish, in vivo, 2 μM): 2/4; Visual toxicity (bent tail, distended peritoneum, edema, pericardial congestion) (zebrafish larvae [1]; zebrafish, in vivo, 6.6 μM): 1/4
C=C(C)[C@H]1Cc2c(ccc3c2O[C@@H]2COc4cc(OC)c(OC)cc4[C@@H]2C3=O)O1 [Rotenone]	4/0	4/0		1/4			4/0	2/4	4/0	3/4	2/4	1/4	0/3	1/1	
CN(Cc1cnc2nc(N)nc(N)c2n1)c1ccc(C(=O)N[C@@H](CCC(=O)O)C(=O)O)cc1 [methotrexate]															Chronic drug effect in human liver MPS [3]: induction of fibrosis
